In brackets after ≈: the same amount, converted by molar mass.
Assays:
[1] = tested on: rat super-ovulation; assay: biological activity in rat super-ovulation; type: in vivo
[2] = solubility in a neutral buffer used for nasal application; details: well compatible neutral buffer as used for nasal application of protirelin
[3] = tested on: Serum testosterone; assay: serum testosterone after Gn-RH antagonist (Table 2); type: in vivo; details: untreated control 3.63 ± 0.59
Description: The Gn-RH antagonists according to the invention have an inhibitory effect on the formation of lutropin and follitropin and, as a result, also on the synthesis of testosterone and estrogen (see Table 2). They can be employed as high-dose Gn-RH […] in gonadotropin- and steroid-dependent diseases.

Row | Solubility in neutral nasal buffer [2] [µg/mL] | Molecule | ED20-50 Super-ovul. [1] [ng/rat] | Serum testosterone [3] [ng/mL]
1 |  | CCNC(=O)[C@@H]1CCCN1C(=O)[C@H](CCCNC(=N)N)NC(=O)[C@H](CC(C)C)NC(=O)[C@@H](Cc1c[nH]c2ccccc12)NC(=O)[C@H](Cc1ccc(O)cc1)NC(=O)[C@H](CO)NC(=O)[C@H](Cc1c[nH]c2ccccc12)NC(=O)[C@H](Cc1c[nH]cn1)NC(=O)[C@@H]1CCC(=O)N1 [LH--RH--T, Pgl--His--Trp--Ser--Tyr--D-Trp--Leu--Arg--Pro--NH--C2 H5, reference compound] | 3 | 
2 | 62500 (≈ 46500 µM) | CCNC(=O)[C@@H]1CCCN1C(=O)[C@H](CCCNC(=N)N)NC(=O)[C@H](CC(C)C)NC(=O)[C@@H](CO[C@H]1O[C@H](CO)[C@@H](O)[C@H](O)[C@@H]1O)NC(=O)[C@H](Cc1ccc(O)cc1)NC(=O)[C@H](CO)NC(=O)[C@H](Cc1c[nH]c2ccccc12)NC(=O)[C@H](Cc1c[nH]cn1)NC(=O)[C@@H]1CCC(=O)N1 [Pgl-His-Trp-Ser-Tyr-D-Ser(α-D-Man)-Leu-Arg-Pro-NH-C2 H5] | 6 | 
3 | 125000 (≈ 92900 µM) | CCNC(=O)[C@@H]1CCCN1C(=O)[C@H](CCCNC(=N)N)NC(=O)[C@H](CC(C)C)NC(=O)[C@@H](CO[C@@H]1O[C@H](CO)[C@@H](O)[C@H](O)[C@H]1O)NC(=O)[C@H](Cc1ccc(O)cc1)NC(=O)[C@H](CO)NC(=O)[C@H](Cc1c[nH]c2ccccc12)NC(=O)[C@H](Cc1c[nH]cn1)NC(=O)[C@@H]1CCC(=O)N1 [Pgl-His-Trp-Ser-Tyr-D-Ser(β-D-Glc)-Leu-Arg-Pro-NH-C2 H5] | 12 | 
4 | 167000 (≈ 126000 µM) | CCNC(=O)[C@@H]1CCCN1C(=O)[C@H](CCCNC(=N)N)NC(=O)[C@H](CC(C)C)NC(=O)[C@@H](CO[C@H]1O[C@@H](C)[C@@H](O)[C@@H](O)[C@@H]1O)NC(=O)[C@H](Cc1ccc(O)cc1)NC(=O)[C@H](CO)NC(=O)[C@H](Cc1c[nH]c2ccccc12)NC(=O)[C@H](Cc1c[nH]cn1)NC(=O)[C@@H]1CCC(=O)N1 [Pgl-His-Trp-Ser-Tyr-D-Ser(β-L-Fuc)-Leu-Arg-Pro-NH-C2 H5] | 6 | 
5 | 3300 (≈ 2330 µM) | CCNC(=O)[C@@H]1CCCN1C(=O)[C@H](CCCNC(=N)N)NC(=O)[C@H](CO[C@H]1O[C@H](CO)[C@@H](O)[C@H](O)[C@@H]1O)NC(=O)[C@@H](Cc1c[nH]c2ccccc12)NC(=O)[C@H](Cc1ccc(O)cc1)NC(=O)[C@H](CO)NC(=O)[C@H](Cc1c[nH]c2ccccc12)NC(=O)[C@H](Cc1c[nH]cn1)NC(=O)[C@@H]1CCC(=O)N1 [Pgl-His-Trp-Ser-Tyr-D-Trp-Ser(α-D-Man)-Arg-Pro-NH-C2 H5] | > 24 | 
6 | 2500 (≈ 1760 µM) | CCNC(=O)[C@@H]1CCCN1C(=O)[C@H](CCCNC(=N)N)NC(=O)[C@H](CO[C@@H]1O[C@H](CO)[C@@H](O)[C@H](O)[C@H]1O)NC(=O)[C@@H](Cc1c[nH]c2ccccc12)NC(=O)[C@H](Cc1ccc(O)cc1)NC(=O)[C@H](CO)NC(=O)[C@H](Cc1c[nH]c2ccccc12)NC(=O)[C@H](Cc1c[nH]cn1)NC(=O)[C@@H]1CCC(=O)N1 [Pgl-His-Trp-Ser-Tyr-D-Trp-Ser(β-D-Glc)-Arg-Pro-NH-C2 H5] | 6 | 
7 | 2500 (≈ 1780 µM) | CCNC(=O)[C@@H]1CCCN1C(=O)[C@H](CCCNC(=N)N)NC(=O)[C@H](CO[C@H]1O[C@@H](C)[C@@H](O)[C@@H](O)[C@@H]1O)NC(=O)[C@@H](Cc1c[nH]c2ccccc12)NC(=O)[C@H](Cc1ccc(O)cc1)NC(=O)[C@H](CO)NC(=O)[C@H](Cc1c[nH]c2ccccc12)NC(=O)[C@H](Cc1c[nH]cn1)NC(=O)[C@@H]1CCC(=O)N1 [Pgl-His-Trp-Ser-Tyr-D-Trp-Ser(β-L-Fuc)-Arg-Pro-NH-C2 H5] | > 200 | 
8 |  | Ac-D-Nal-p-Cl-D-Phe-D-Trp-Ser-Arg-D-Ser(α-L-Rha)-Leu Arg-Pro-Azagly-NH2 |  | 2.27 ± 0.28
9 |  | Ac-D-Nal-p-Cl-D-Phe-D-Trp-Ser-His-D-Ser(α-L-Rha)-Leu-Arg-Pro-Azagly-N H2 |  | 1.34 ± 0.17
10 |  | Ac-D-Nal-p-Cl-D-Phe-D-Trp-Ser-Tyr-D-Ser(α-L-Rha)-Leu-Arg-Pro-Azagly-N H2 |  | 2.30 ± 0.47
11 | 10000 | Pgl--His--Trp--Ser--Tyr--D-Trp--Ser(β-D-Gal)--Arg--Pro--NH--C2 H5 |  | 
12 | 50000 | Pgl-His-Trp-Ser-Tyr-D-Ser(Ac-α-L-Rha)-Leu-Arg-Pro-NH-C2 H5 | 3 | 
13 | 10000 | Pgl-His-Trp-Ser-Tyr-D-Ser(Ac-β-L-Fuc)-Leu-Arg-Pro-NH-C2 H5 | 6 | 
14 | 125000 | Pgl-His-Trp-Ser-Tyr-D-Ser(D-Ara)-Leu-Arg-Pro-NH-C2 H5 | < 24 | 
15 | 10000 | Pgl-His-Trp-Ser-Tyr-D-Ser(D-Rib)-Leu-Arg-Pro-NH-C2 H5 | < 6 | 
16 | 125000 | Pgl-His-Trp-Ser-Tyr-D-Ser(L-Ara)-Leu-Arg-Pro-NH-C2 H5 | 12 | 
17 | 167000 | Pgl-His-Trp-Ser-Tyr-D-Ser(α-L-Rha)-Leu-Arg-Pro-NH-C2 H5 | 3 | 
18 | 125000 | Pgl-His-Trp-Ser-Tyr-D-Ser(β-D-Gal)-Leu-Arg-Pro-NH-C2 H5 | 12 | 
19 | 125000 | Pgl-His-Trp-Ser-Tyr-D-Ser(β-D-Glc-NAc)-Leu-Arg-Pro-NH-C2 H5 | < 6 | 

Row | Solubility in neutral nasal buffer [2] [µg/mL] | Molecule | ED20-50 Super-ovul. [1] [ng/rat] | Serum testosterone [3] [ng/mL]
20 | 50000 | Pgl-His-Trp-Ser-Tyr-D-Ser(β-D-Xyl)-Leu-Arg-Pro-NH-C2 H5 | 6 | 
21 | 10000 | Pgl-His-Trp-Ser-Tyr-D-Ser(β-L-Xyl)-Leu-Arg-Pro-NH-C2 H5 | 6 | 
22 | 167000 | Pgl-His-Trp-Ser-Tyr-D-Ser(β-Lac)-Leu-Arg-Pro-NH-C2 H5 | 12 | 
23 | 10000 | Pgl-His-Trp-Ser-Tyr-D-Trp-Ser(Ac2 -α-D-Man)-Arg-Pro-NH-C2 H5 | > 24 | 
24 | 3300 | Pgl-His-Trp-Ser-Tyr-D-Trp-Ser(Ac2 -β-L-Fuc)-Arg-Pro-NH-C2 H5 | 200 | 
25 | 10000 | Pgl-His-Trp-Ser-Tyr-D-Trp-Ser(Ac-α-D-Man)-Arg-Pro-NH-C2 H5 | > 24 | 
26 | 500 | Pgl-His-Trp-Ser-Tyr-D-Trp-Ser(Ac-α-L-Rha)-Arg-Pro-NH-C2 H5 | > 24 | 
27 | 2500 | Pgl-His-Trp-Ser-Tyr-D-Trp-Ser(Ac-β-D-Glc)-Arg-Pro-NH-C2 H5 | 5 | 
28 | 2500 | Pgl-His-Trp-Ser-Tyr-D-Trp-Ser(Ac-β-D-Xyl)-Arg-Pro-NH-C2 H5 | 6 | 
29 | 10000 | Pgl-His-Trp-Ser-Tyr-D-Trp-Ser(Ac-β-L-Fuc)-Arg-Pro-NH-C2 H5 | 200 | 
30 | 5000 | Pgl-His-Trp-Ser-Tyr-D-Trp-Ser(D-Ara)-Arg-Pro-NH-C2 H5 | 24 | 
31 | 25000 | Pgl-His-Trp-Ser-Tyr-D-Trp-Ser(D-Rib)-Arg-Pro-NH-C2 H5 | < 24 | 
32 | 1250 | Pgl-His-Trp-Ser-Tyr-D-Trp-Ser(L-Ara)-Arg-Pro-NH-C2 H5 | 48 | 
33 | 1400 | Pgl-His-Trp-Ser-Tyr-D-Trp-Ser(α-L-Rha)-Arg-Pro-NH-C2 H5 | > 24 | 
34 | 125000 | Pgl-His-Trp-Ser-Tyr-D-Trp-Ser(β-D-Glc-NAc)-Arg-Pro-NH-C2 H5 | > 24 | 
35 | 1700 | Pgl-His-Trp-Ser-Tyr-D-Trp-Ser(β-D-Xyl)-Arg-Pro-NH-C2 H5 | 6 | 
36 | 1100 | Pgl-His-Trp-Ser-Tyr-D-Trp-Ser(β-L-Xyl)-Arg-Pro-NH-C2 H5 | 48 | 
37 | 167000 | Pgl-His-Trp-Ser-Tyr-D-Trp-Ser(β-Lac)-Arg-Pro-NH-C2 H5 | < 48 | 

Row | Molecule | Solubility in neutral nasal buffer [2] [µg/mL] | ED20-50 Super-ovul. [1] [ng/rat] | Serum testosterone [3] [ng/mL]
38 | CCNC(=O)[C@@H]1CCCN1C(=O)[C@H](CCCNC(=N)N)NC(=O)[C@H](CC(C)C)NC(=O)[C@@H](COC(C)(C)C)NC(=O)[C@H](Cc1ccc(O)cc1)NC(=O)[C@H](CO)NC(=O)[C@H](Cc1c[nH]c2ccccc12)NC(=O)[C@H](Cc1cnc[nH]1)NC(=O)[C@@H]1CCC(=O)N1 [Buserelin, Pgl--His--Trp--Ser--Tyr--D-Ser(tBu)--Leu--Arg--Pro--NH--C2 H5, reference compound] | 1250 (≈ 1010 µM) | 3 | 
